# Source: US20220362167A1, “WATER-DISPERSIBLE CANNABIDIOL PRODUCT AND PREPARATION METHOD THEREFOR” (GUILIN LAYN NATURAL INGREDIENTS CORP., priority 2019, published 2022)
# Assay: Water solubility test of cannabidiol product
# Assay type: physicochemical
# Details: 50 mg in 500 mL distilled water, room temperature, stirred
# Experimental: Water Solubility Test of Cannabidiol Product
# Three parts of 500 mL of distilled water are taken. 50 mg of the cannabidiol product prepared in Example 1, Comparative Example 1 and Comparative Example 2 are added respectively at room temperature, and stirred, and recorded the time required for dissolution, with the cannabidiol as control.
smiles,measurement,value
C=C(C)[C@@H]1CCC(C)=C[C@H]1c1c(O)cc(CCCCC)cc1O [cannabidiol],appearance of the solution,precipitation and delamination
